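Briefly, cells in 96-well plates were exposed to five compound concentrations for 48 h, and endpoints were estimated by linear interpolation. At the GI50, growth is halved.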 The source made the active and inactive calls. Cut-off read from the data, not from the text of the source: active = GI50 up to about 1.1 µM and inactive = higher.
Experiments:
Assay in all cases: DTP human tumour cell line panel, 48 h
[1] = test system: NCI-H226
[2] = test system: TK-10
[3] = test system: BT-549
[4] = test system: OVCAR-5
[5] = test system: MDA-MB-231
[6] = test system: HCT-116
[7] = test system: KM12
[8] = test system: SK-MEL-28
[9] = test system: K562
[10] = test system: COLO 205
[11] = test system: HOP-92
[12] = test system: SF-295
[13] = test system: M14
[14] = test system: A498
[15] = test system: 786-0
[16] = test system: SF-539
[17] = test system: CAKI-1
[18] = test system: SW-620
[19] = test system: HT-29
[20] = test system: HL-60
[21] = test system: SN12C
[22] = test system: SK-OV-3
[23] = test system: RPMI-8226
[24] = test system: SK-MEL-2
[25] = test system: MDA-N
[26] = test system: SF-268
[27] = test system: Malme-3M
[28] = test system: UO-31
[29] = test system: LOX IMVI
[30] = test system: HCT-15
[31] = test system: NCI-H522
[32] = test system: T47D
[33] = test system: OVCAR-3
[34] = test system: NCI-H23
[35] = test system: OVCAR-4
[36] = test system: SR
[37] = test system: U-251
[38] = test system: ACHN
[39] = test system: MCF7
[40] = test system: Hs-578T
[41] = test system: NCI-H460
[42] = test system: MDA-MB-435
[43] = test system: OVCAR-8
[44] = test system: A549
[45] = test system: DU-145
[46] = test system: HCC 2998
[47] = test system: HOP-62
[48] = test system: EKVX
[49] = test system: MOLT-4
[50] = test system: UACC-257
[51] = test system: RXF 393
[52] = test system: NCI/ADR-RES
[53] = test system: SNB-19
[54] = test system: UACC-62
[55] = test system: SK-MEL-5
[56] = test system: IGROV-1
[57] = test system: CCRF-CEM

In the case of `NS(=O)(=O)c1nnc(NC(=O)CCC(=O)O)s1`, the GI50 [1] is reported as > 100 µM (inactive), the GI50 [2] is reported as > 100 µM (inactive) and the GI50 [3] is reported as > 100 µM (inactive). For the same compound, the GI50 [4] was > 100 µM (inactive), the GI50 [5] was > 100 µM (inactive) and the GI50 [6] was > 100 µM (inactive). The GI50 [7] was > 100 µM (inactive), the GI50 [8] was > 100 µM (inactive) and the GI50 [9] was > 100 µM (inactive). For the same compound, the GI50 [10] was > 100 µM (inactive), the GI50 [11] was > 100 µM (inactive) and the GI50 [12] was > 100 µM (inactive). The GI50 [13] was > 100 µM (inactive), the GI50 [14] was > 100 µM (inactive) and the GI50 [15] was > 100 µM (inactive). The GI50 [16] was > 100 µM (inactive), the GI50 [17] was > 100 µM (inactive) and the GI50 [18] was > 100 µM (inactive). The GI50 [19] was > 100 µM (inactive), the GI50 [20] was > 100 µM (inactive) and the GI50 [21] was > 100 µM (inactive). The GI50 [22] was > 100 µM (inactive), the GI50 [23] was > 100 µM (inactive) and the GI50 [24] was > 100 µM (inactive). The GI50 [25] was > 100 µM (inactive), the GI50 [26] was > 100 µM (inactive) and the GI50 [27] was > 100 µM (inactive). For the same compound, the GI50 [28] was > 100 µM (inactive), the GI50 [29] was > 100 µM (inactive) and the GI50 [30] was greater than 100 µM. The GI50 [31] was > 100 µM (inactive), the GI50 [32] was > 100 µM (inactive) and the GI50 [33] was > 100 µM (inactive). The GI50 [34] was > 100 µM (inactive), the GI50 [35] was > 100 µM (inactive) and the GI50 [36] was > 100 µM (inactive). For the same compound, the GI50 [37] was > 100 µM (inactive), the GI50 [38] was > 100 µM (inactive) and the GI50 [39] was > 100 µM (inactive). For the same compound, the GI50 [40] was > 100 µM (inactive), the GI50 [41] was > 100 µM (inactive) and the GI50 [42] was > 100 µM (inactive). The GI50 [43] was > 100 µM (inactive), the GI50 [44] was > 100 µM (inactive) and the GI50 [45] was > 100 µM (inactive). For the same compound, the GI50 [46] was > 100 µM (inactive), the GI50 [47] was > 100 µM (inactive) and the GI50 [48] was > 100 µM (inactive). The GI50 [49] was > 100 µM (inactive), the GI50 [50] was > 100 µM (inactive) and the GI50 [51] was > 100 µM (inactive). For the same compound, the GI50 [52] was > 100 µM (inactive), the GI50 [53] was > 100 µM (inactive) and the GI50 [54] was > 100 µM (inactive). The GI50 [55] was > 100 µM (inactive).

For `COc1ccc2c3c(c4cc(OC)c(OC)cc4c2c1)CN1CCC[C@H]1[C@@H]3O` [TYLOPHORININE], the GI50 [1] was 0.27 µM (active), the GI50 [3] was 0.493 µM (active) and the GI50 [5] was < 0.0489 µM (active). For the same compound, the GI50 [6] was < 0.0445 µM (active), the GI50 [7] was < 0.0371 µM (active) and the GI50 [9] was 0.0422 µM (active). The GI50 [56] was < 0.0508 µM (active), the GI50 [10] was 0.039 µM (active) and the GI50 [12] was 0.05 µM (active). The GI50 [14] was < 0.0494 µM (active), the GI50 [16] was 0.253 µM (active) and the GI50 [19] was < 0.0289 µM (active). The GI50 [21] was < 0.0201 µM (active), the GI50 [22] was 0.0733 µM (active) and the GI50 [23] was 0.0676 µM (active). For the same compound, the GI50 [25] was < 0.0404 µM (active), the GI50 [26] was < 0.0453 µM (active) and the GI50 [27] was 0.249 µM (active). For the same compound, the GI50 [29] was < 0.01 µM (active), the GI50 [31] was 0.29 µM (active) and the GI50 [32] was < 0.0404 µM (active). For the same compound, the GI50 [35] was 0.224 µM (active), the GI50 [36] was < 0.0443 µM (active) and the GI50 [57] was < 0.0359 µM (active). For the same compound, the GI50 [40] was < 0.0441 µM (active), the GI50 [41] was < 0.0474 µM (active) and the GI50 [48] was < 0.01 µM (active). For the same compound, the GI50 [49] was < 0.0318 µM (active), the GI50 [52] was 0.36 µM (active) and the GI50 [53] was < 0.01 µM (active). The GI50 [54] was < 0.0482 µM (active).
